From PubChem BioAssay AID651889 (Broad Institute, 2012)
The source made the active and inactive calls.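 Rule for the calls: active = IC50 under 25 times the IC50 of the reference antimalarial drug in the parasite growth test; inactive = the rest.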

Tested on: P. falciparum NF54 in erythrocytes, 3H-hypoxanthine incorporation, 72 h
Test: antimalarial activity against erythrocytic parasites – NF54 strain, plate reader, dry powder, dose response (AID 651889)

For `C[C@@H]1CN([C@@H](C)CO)C(=O)c2cccc(NC(=O)c3ccncc3)c2O[C@H]1CN(C)Cc1ccc(Oc2ccccc2)cc1`, the IC50 was 580 nM (inactive).
